Drawing on patent US20240423207A1, “PICOLINAMIDE COMPOUNDS WITH FUNGICIDAL ACTIVITY” (CORTEVA AGRISCIENCE LLC, priority 2014, published 2024), this text covers pest or weed control for 24 molecules.

The subject of assay [1] is Mycosphaerella graminicola; Anamorph: Septoria tritici. In words: Leaf Blotch of Wheat (SEPTTR) fungicidal activity on wheat seedlings. It is filed as in vivo. The settings on record: Zymoseptoria tritici; for pest or weed control at 121.5 g/ha: Low Volume, 121.5 g/H; for pest or weed control at 100 ppm: High Volume. How it is done:
Example A: Evaluation of Fungicidal Activity: Leaf Blotch of Wheat (Mycosphaerella graminicola; Anamorph: Septoria tritici; Bayer code […]): Technical grades of materials were dissolved in acetone, which were then mixed with nine volumes of water (H2O) containing 110 ppm Triton X-100. The fungicide solutions were applied onto wheat seedlings using an automated booth sprayer to run-off. All sprayed plants were allowed to air dry prior to further handling. All fungicides were evaluated using the aforementioned method for their activity vs. all target diseases, unless stated otherwise. Wheat leaf blotch and brown rust activity were also evaluated using track spray applications, in which case the fungicides were formulated as EC formulations, containing 0.1% Trycol 5941 in the spray solutions. Wheat plants (variety Yuma) were grown from seed in a greenhouse in 50% mineral soil/50% soil-less Metro mix until the first leaf was fully emerged, with 7-10 seedlings per pot. These plants were inoculated with an aqueous spore suspension of Septoria tritici either prior to or after fungicide treatments. After inoculation the plants were kept in 100% relative humidity (one day in a dark dew chamber followed by two to three days in a lighted dew chamber at 20° C.) to permit spores to germinate and infect the leaf. The plants were then transferred to a greenhouse set at 20° C. for disease to develop. When disease symptoms were fully expressed on the 1st leaves of untreated plants, infection levels were assessed on a scale of 0 to 100 percent disease severity. Percent disease control was calculated using the ratio of disease severity on treated plants relative to untreated plants.

Assay [2] concerns Puccinia triticina; Synonym: Puccinia recondita f sp. tritici. In words: Wheat Brown Rust (PUCCRT) fungicidal activity on wheat seedlings. It counts as in vivo. The settings on record: for pest or weed control at 121.5 g/ha: Low Volume, 121.5 g/H; for pest or weed control at 100 ppm: High Volume. How it is done: Technical grades of materials were dissolved in acetone, which were then mixed with nine volumes of water (H2O) containing 110 ppm Triton X-100. The fungicide solutions were applied onto wheat seedlings using an automated booth sprayer to run-off. All sprayed plants were allowed to air dry prior to further handling. All fungicides were evaluated using the aforementioned method for their activity vs. all target diseases, unless stated otherwise. Wheat leaf blotch and brown rust activity were also evaluated using track spray applications, in which case the fungicides were formulated as EC formulations, containing 0.1% Trycol 5941 in the spray solutions. Wheat plants (variety Yuma) were grown from seed in a greenhouse in 50% mineral soil/50% soil-less Metro mix until the first leaf was fully emerged, with 7-10 seedlings per pot. These plants were inoculated with an aqueous spore suspension of Septoria tritici either prior to or after fungicide treatments. After inoculation the plants were kept in 100% relative humidity (one day in a dark dew chamber followed by two to three days in a lighted dew chamber at 20° C.) to permit spores to germinate and infect the leaf. The plants were then transferred to a greenhouse set at 20° C. for disease to develop. When disease symptoms were fully expressed on the 1st leaves of untreated plants, infection levels were assessed on a scale of 0 to 100 percent disease severity. Percent disease control was calculated using the ratio of disease severity on treated plants relative to untreated plants. Example B: Evaluation of Fungicidal Activity: Wheat Brown Rust (Puccinia triticina; Synonym: Puccinia recondita f sp. tritici; Bayer code PUCCRT): Wheat plants (variety Yuma) were grown from seed in a greenhouse in 50% mineral soil/50% soil-less Metro mix until the first leaf was fully emerged, with 7-10 seedlings per pot. These plants were inoculated with an aqueous spore suspension of Puccinia triticina either prior to or after fungicide treatments. After inoculation the plants were kept in a dark dew room at 22° C. with 100% relative humidity overnight to permit spores to germinate and infect the leaf. The plants were then transferred to a greenhouse set at 24° C. for disease to develop. Fungicide formulation, application and disease assessment followed the procedures as described in the Example A.

The mark [3] stands for this setting: 24 h, 1 Day Protectant, read-out: SEPTTR 1DP disease control.
The mark [4] stands for this setting: 72 h, 3 Day Curative, read-out: SEPTTR 3DC disease control.
The mark [5] stands for this setting: 24 h, 1 Day Protectant, read-out: PUCCRT 1DP disease control.
Setting [6] is: 72 h, 3 Day Curative, read-out: PUCCRT 3DC disease control.

Like-named read-outs stand apart in the source and are kept apart here.

As to `COc1ccnc(C(=O)N[C@@H](C)C(=O)O[C@@H](C)C(c2ccc(F)c(C)c2)c2ccc(F)c(C)c2)c1OC(C)=O` [Cmpd 217], the pest or weed control at 121.5 g/ha in assay [1] (setting [3]) is over 80%; in assay [1] (setting [4]), over 80%; in assay [2] (setting [5]), over 80%; in assay [2] (setting [6]) it was under 80%.
Take `CCOc1ccnc(C(=O)N[C@@H](C)C(=O)O[C@@H](C)C(c2ccc(F)cc2)c2ccc(F)cc2)c1O` [Cmpd 111]: the results for the pest or weed control at 100 ppm in assay [1] (setting [3]), in assay [1] (setting [4]) and in assay [2] (setting [5]) were under 80%, over 80% and under 80%, respectively.
For the molecule `COc1ccnc(C(=O)N[C@@H](C)C(=O)O[C@@H](C)C(c2ccc(C)cc2)c2ccc(C)cc2)c1OC(C)=O` [Cmpd 167], the pest or weed control at 121.5 g/ha in assay [1] (setting [3]), in assay [1] (setting [4]), in assay [2] (setting [5]) and in assay [2] (setting [6]) was over 80% each time.
Turning to `COc1ccnc(C(=O)NCC(=O)O[C@@H](C)C(c2ccc(F)cc2)c2ccc(F)cc2)c1O` [Cmpd 113], the pest or weed control at 100 ppm was over 80% in assay [1] (setting [3]), under 80% in assay [1] (setting [4]), over 80% in assay [2] (setting [5]) and under 80% in assay [2] (setting [6]).
`COc1ccnc(C(=O)N[C@@H](C)C(=O)O[C@@H](C)C(c2cccs2)c2cccs2)c1OC(C)=O` [Cmpd 143]: the pest or weed control at 121.5 g/ha in assay [1] (setting [4]) and in assay [2] (setting [5]) was under 80% each time.
In the case of `COc1ccnc(C(=O)N[C@@H](C)C(=O)O[C@@H](C)C(F)(c2ccccc2)c2ccccc2)c1OC(C)=O` [Cmpd 152], the pest or weed control at 121.5 g/ha was over 80% in assay [1] (setting [3]), over 80% in assay [1] (setting [4]), under 80% in assay [2] (setting [5]) and under 80% in assay [2] (setting [6]).
With `COc1ccnc(C(=O)N[C@H](C(=O)O[C@@H](C)C(c2ccc(F)cc2)c2ccc(F)cc2)C(C)C)c1O` [Cmpd 115], the pest or weed control at 100 ppm was over 80% in assay [1] (setting [3]), over 80% in assay [1] (setting [4]) and under 80% in assay [2] (setting [5]).
On to `COc1ccccc1C(c1ccccc1OC)[C@H](C)OC(=O)[C@H](C)NC(=O)c1nccc(OC)c1O` [Cmpd 117], for which the pest or weed control at 100 ppm is over 80% in assay [1] (setting [3]), over 80% in assay [1] (setting [4]), over 80% in assay [2] (setting [5]) and under 80% in assay [2] (setting [6]).
As for `C#Cc1ccc(C(c2ccc(C#C)cc2)[C@H](C)OC(=O)[C@H](C)NC(=O)c2nccc(OC)c2OCOC(C)=O)cc1` [Cmpd 197], the pest or weed control at 121.5 g/ha in assay [1] (setting [3]), in assay [1] (setting [4]), in assay [2] (setting [5]) and in assay [2] (setting [6]) was over 80% throughout.
`CCOC(c1ccccc1)(c1ccccc1)[C@H](C)OC(=O)[C@H](C)NC(=O)c1nccc(OC)c1O` [Cmpd 93]: the values for the pest or weed control at 100 ppm in assay [1] (setting [3]), in assay [1] (setting [4]) and in assay [2] (setting [5]) were over 80%, under 80% and under 80%, respectively.
As to `COc1ccnc(C(=O)N[C@@H](C)C(=O)O[C@@H](C)C(c2ccc(F)cc2)c2ccc(F)cc2)c1OC(=O)C1CC1` [Cmpd 210], the pest or weed control at 121.5 g/ha in assay [1] (setting [3]) is over 80%; in assay [1] (setting [4]) it was over 80%; in assay [2] (setting [5]), over 80%; in assay [2] (setting [6]), under 80%.
Turning to `CC[C@H](NC(=O)c1nccc(OC)c1OCOC(C)=O)C(=O)O[C@@H](C)C(c1ccc(F)cc1)c1ccc(F)cc1` [Cmpd 184], the pest or weed control at 121.5 g/ha in assay [1] (setting [3]), in assay [1] (setting [4]), in assay [2] (setting [5]) and in assay [2] (setting [6]) was over 80% in each case.
Take `COc1ccnc(C(=O)N[C@@H](C)C(=O)O[C@@H](C)C(F)(c2ccccc2)c2ccccc2)c1O` [Cmpd 97]: the pest or weed control at 100 ppm in assay [1] (setting [3]) is over 80%; in assay [1] (setting [4]), over 80%; in assay [2] (setting [5]) it was under 80%.
Turning to `CC[C@H](NC(=O)c1nccc(OC)c1O)C(=O)O[C@@H](C)C(c1ccc(F)cc1)c1ccc(F)cc1` [Cmpd 114], the pest or weed control at 100 ppm in assay [1] (setting [3]), in assay [1] (setting [4]), in assay [2] (setting [5]) and in assay [2] (setting [6]) was over 80% throughout.
For the molecule `COc1ccnc(C(=O)N[C@@H](C)C(=O)O[C@@H](C)C(c2ccc(-c3ccccc3)cc2)c2ccc(-c3ccccc3)cc2)c1OC(C)=O` [Cmpd 182], the pest or weed control at 121.5 g/ha in assay [1] (setting [4]) and in assay [2] (setting [6]) was under 80% in each case.
For `COc1ccnc(C(=O)N[C@@H](C)C(=O)O[C@@H](C)C(c2ccc(F)cc2)c2ccc(F)cc2)c1OC(=O)C(C)C` [Cmpd 208], the pest or weed control at 121.5 g/ha in assay [1] (setting [3]) is over 80%; in assay [1] (setting [4]) it was over 80%; in assay [2] (setting [5]) it was over 80%; in assay [2] (setting [6]) it was under 80%.
With `COc1ccnc(C(=O)N[C@@H](C)C(=O)O[C@@H](C)C(c2ccc(C)s2)c2ccc(C)s2)c1OCOC(C)=O` [Cmpd 170], the pest or weed control at 121.5 g/ha in assay [1] (setting [3]), in assay [1] (setting [4]), in assay [2] (setting [5]) and in assay [2] (setting [6]) was under 80% throughout.
Take `COc1ccnc(C(=O)N[C@@H](C)C(=O)O[C@@H](C)[C@@H](c2ccccc2)c2ccc(C(F)(F)F)cc2)c1O` [Cmpd 106]: the pest or weed control at 100 ppm in assay [1] (setting [3]), in assay [1] (setting [4]) and in assay [2] (setting [5]) was over 80% in each case.
For the molecule `COc1ccnc(C(=O)N[C@@H](C)C(=O)O[C@@H](C)C(c2ccc(F)c(F)c2)c2ccc(F)c(F)c2)c1OCOC(C)=O` [Cmpd 218], the pest or weed control at 121.5 g/ha in assay [1] (setting [3]) was over 80%; in assay [1] (setting [4]), over 80%; in assay [2] (setting [5]), over 80%; in assay [2] (setting [6]), under 80%.
`C#Cc1ccc(C(c2ccc(C#C)cc2)[C@H](C)OC(=O)[C@H](C)NC(=O)c2nccc(OC)c2O)cc1` [Cmpd 123]: the pest or weed control at 100 ppm in assay [1] (setting [3]) was under 80%; in assay [1] (setting [4]), over 80%; in assay [2] (setting [5]), under 80%.
Regarding `COc1ccnc(C(=O)N[C@@H](CC(C)C)C(=O)O[C@@H](C)C(c2ccc(F)cc2)c2ccc(F)cc2)c1OC(C)=O` [Cmpd 190], the pest or weed control at 121.5 g/ha in assay [1] (setting [3]), in assay [1] (setting [4]) and in assay [2] (setting [5]) was under 80% in each case.
Turning to `COc1ccc(C(c2ccc(OC)cc2)[C@H](C)OC(=O)[C@H](C)NC(=O)c2nccc(OC)c2O)cc1` [Cmpd 98], the pest or weed control at 100 ppm in assay [1] (setting [3]), in assay [1] (setting [4]), in assay [2] (setting [5]) and in assay [2] (setting [6]) was over 80% in each case.
In the case of `COc1ccnc(C(=O)N[C@@H](C)C(=O)O[C@@H](C)C(c2ccc(F)c(Cl)c2)c2ccc(F)c(Cl)c2)c1O` [Cmpd 132], the pest or weed control at 100 ppm is over 80% in assay [1] (setting [3]), over 80% in assay [1] (setting [4]), over 80% in assay [2] (setting [5]) and under 80% in assay [2] (setting [6]).
In the case of `COc1ccnc(C(=O)N[C@@H](C)C(=O)O[C@@H](C)C(c2ccc(C)cc2)c2ccc(C)cc2)c1OCOC(C)=O` [Cmpd 171], the pest or weed control at 121.5 g/ha in assay [1] (setting [3]), in assay [1] (setting [4]), in assay [2] (setting [5]) and in assay [2] (setting [6]) was over 80% throughout.
